For test [1], the system named is multipotent mesenchymal cells such as M2-10B4 (M2) marrow stromal cells and C3H10T1/2 embryonic fibroblasts. The following applies: Kha et al. J Bone Miner Res 19:830-840, 2004; cited from earlier work.
Test [2] concerns rat spines (posterolateral space, L3-L5). The test is described as follows: posterolateral spinal fusion in rat two-level spine model. The format is in vivo. Conditions: for bone growth on radiographs: 4-week and 8-week timepoints; for fusion by manual palpation of the spine segments (in words): 8 weeks; for fusion observed in rat spines (manual palpation): matrix of Oxy133, collagen and ceramic wetted with sterile water, two implants bilaterally, 8-week sacrifice, 5/5 spines. The method, then: FIG. 6 illustrates uses of a formulation of malleable implants having 20 mg of Oxy133 on each side of the implant, in accordance with the malleable implants described herein. […] A dry composition of a matrix containing Oxy133, collagen and ceramic as described herein was prepared and wetted with sterile water to be implanted in rat spines as shown in FIG. 6. The wetted matrix was cut in half with a razor blade to yield two halves. The two implants were molded into cylindrical shapes prior to insertion and were positioned bilaterally in the posterolateral space of each test subject. Each implant contained 20 mg Oxy133. Radiographs were taken roughly 10 minutes after the procedure, 4 weeks after the procedure, and 8 weeks after the procedure. […] Fusion was tested at 8-week sacrifice by manual palpation. […] A dry composition of a matrix containing Oxy133, collagen and ceramic as described herein was prepared and wetted with sterile water to be implanted in rat spines as shown in FIG. 6. The wetted matrix was cut in half with a razor blade to yield two halves. The two implants were molded into cylindrical shapes prior to insertion and were positioned bilaterally in the posterolateral space of each test subject. Each implant contained 125 mg Oxy133. Radiographs were taken roughly 10 minutes after the procedure, 4 weeks after the procedure, and 8 weeks after the procedure. […] Fusion was tested at 8-week sacrifice by manual palpation.

Test [3] deals with Mesenchymal stem cells. Conditions: general statement, no experiment described; cited from earlier work.

Entries after “also recorded” stand apart in the source; their conditions may differ.

Take `CC(C)CCC[C@](C)(O)[C@H]1CC[C@H]2[C@@H]3CC=C4C[C@@H](O)CC[C@]4(C)[C@H]3CC[C@@]21C` [20(S)-hydroxycholesterol]: the osteogenic differentiation entry in test [1] is reported as “induce osteogenic differentiation”.

Turning to `CC(C)CC[C@@H](O)[C@@H](C)[C@H]1CC[C@H]2[C@@H]3CC=C4C[C@@H](O)CC[C@]4(C)[C@H]3CC[C@]12C` [22(R)-hydroxycholesterol], the osteogenic differentiation result in test [1] is given as “induce osteogenic differentiation”.

In the case of `CC(C)CC[C@H](O)[C@@H](C)[C@H]1CC[C@H]2[C@@H]3CC=C4C[C@@H](O)CC[C@]4(C)[C@H]3CC[C@]12C` [22(S)-hydroxycholesterol], the osteogenic differentiation entry in test [1] was “induce osteogenic differentiation”.

With `CCCCCC[C@](C)(O)[C@H]1CC[C@H]2[C@@H]3C[C@H](O)[C@H]4C[C@@H](O)CC[C@]4(C)[C@H]3CC[C@@]21C` [Oxy133, (3S,5S,6S,8R,9S,10R,13S,14S,17S)-17-((S)-2-hydroxyoctan-2-yl)-10,13-dimethylhexadecahydro-1H-cyclopenta[α]phenanthrene-3,6-diol], the “bone growth on radiographs” value in test [2] (implants with 20 mg Oxy133 each) and in test [2] (implants with 125 mg Oxy133 each) was “promoted bridging bone across the transverse processes of L3-L5; also recorded: Bone growth in rat test subjects can be seen” throughout. Also, the “fusion by manual palpation of the spine segments (in words)” value in test [2] (implants with 20 mg Oxy133 on each side) and in test [2] (implants with 125 mg Oxy133 on each side) was “fusion was confirmed” each time. In addition, the “fusion observed in rat spines (manual palpation)” value in test [2] (each 20 mg Oxy133) and in test [2] (each 125 mg Oxy133) was 100% throughout. In addition, the osteoblast differentiation entry in test [3] is “increased osteoblast differentiation”.

The record behind these values is US9877836B2, “Compression resistant implants including an oxysterol and methods of use” (Warsaw Orthopedic, Inc., priority 2015, dated 2018).
